According to patent US20020068692A1, “Method for the treatment of neurological or neuropsychiatric disorders” (priority 1996, published 2002):

Key:
[1] = test system: patient with Parkinson's disease; test: Bright light therapy plus oral atenolol in patients with Parkinson's disease; type: in vivo, human
Experimental: One patient, diagnosed 3 years earlier with Parkinson's disease, was exposed to bright light therapy (1500 lux) for two, 1 hour sessions per day, one before retiring and one immediately upon arising to antagonize melatonin secretion. This patient was also prescribed 50 mg of the β-noradrenergic antagonist, Atenolol, before going to bed. The patient's performance on motor tests and their body weight were measured before treatment commenced and 2 weeks later. A second patient, diagnosed with Parkinson's disease at least 10 years previously, was tested on the same tests as the first patient.

6-OHDA treated rats = test: Melatonin antagonist therapy in the 6-OHDA rat model (12 hr light/12 hr dark); type: in vivo
Experimental: (§1) After several days of control observations, animals were injected bilaterally with 2 μl of an 8 μg/μl solution of 6-OHDA. Body weight was measured each day just after the onset of the light cycle and motor performance was measured by assessing the performance of animals in the open field and on three tests routinely used to assess motor function. Open field activity was measured in a PVC box fitted with infrared sensors. The number of beams broken during a 10 minute test period was registered. The three reflex tests employed were latency to retract a limb elevated 25 cm above the surface of the test area, latency to step up or down from a raised platform when the rear torso was elevated 30 cm above the test area surface and latency to step outside a prescribed area.
The compound ML-23 was tested in the 6-OHDA model described in Example 1 using a 12 hr light/12 hr dark cycle. Briefly, animals were subject to 13 days controlled observation, on day 14 they were injected with 6-OHDA. Animals in the treatment group were given melatonin antagonist (ML-23 in DMSO (3 mg per mL)) therapy (3 mg/kg/ml, interperitoneal injection (ip)) once on the day of 6-OHDA injection and then twice daily for the 3 subsequent days.
A second melatonin antagonist, S-20928, was tested in the 6-OHDA model described in Examples 1 and 7.

[2] = test system: rats receiving intracerebral injections of 6-OHDA; test: Intracerebroventricular melatonin implants in the 6-OHDA rat model; type: in vivo
Experimental: as §1
In order to produce a sustained central release of melatonin, Regulin® pellets were implanted into the left cerebral ventricle of rats at the time of cannulation of the posterior, lateral hypothalamus (PLH). Control rats were implanted with inert nylon pellets of the same dimensions. […] Animals were cannulated and tested as described in Example 1.

[3] = test system: rats receiving intraperitoneal injections of MPTP; test: Intracerebroventricular melatonin implants in the MPTP rat model; type: in vivo
Experimental: The rats were implanted with intracerebral melatonin pellets or inert nylon as described in Example 3 with the exception that they were not implanted with intrahypothalamic cannulae. After the control performance was assessed, all animals received intraperitoneal injections of MPTP on day 4 (7 mg/kg/i.p.). Given that the effects of MPTP are less prolonged and traumatic than 6-OHDA, this provided an opportunity to study the phenomenon of recovery. Body weight was measured daily and motor performance was measured 1 h and 2 days after injection.

[4] = test system: patients suffering from Parkinson's disease; conditions: cited from earlier work
[5] = test system: marmosets made Parkinsonian with the neurotoxin MPTP; test: Oral ML-23 in marmosets made Parkinsonian with MPTP (blinded experiment); type: in vivo
Experimental: The ML-23 formulation was prepared by dissolving ML-23 in 100% DSMO (dimethylsulfoxide 0.7 ml) and then making up to volume (2.3 ml) with soy bean oil for oral administration.

[6] = ML-23 3 mg/kg ip, once on day of 6-OHDA then twice daily for 3 days

CC(C)NCC(O)COc1ccc(CC(N)=O)cc1 (stereo not shown) [Atenolol]
time taken to walk a 3 meter path and return ([1]; first patient, after 2 weeks of bright light (1500 lux, two 1 hour sessions per day) plus Atenolol 50 mg, 31.3 seconds before treatment): 13.5 s
gain in body weight ([1]; first patient, after 2 weeks of treatment): 3 kilos
tremor and rigidity ([1]; first patient, after treatment): improved
memory loss and mental state ([1]; first patient, after treatment, permitted a decrease of daily 1-dopa dose): improved
time taken to lift foot to knee and return it to the floor 10 times ([1]; first patient, either leg, two weeks after treatment, 58 s (R) 65 s (L) before treatment): 44 s
latency to touch knee with foot and return to the floor 10 times ([1]; second patient, bright light (1000 lux) 1 hour morning and night plus Atenolal 50 mg, after 5 weeks of treatment, FIG. 26): improved dramatically

O=C(NCCc1cccc2ccccc12)C1CCC1 [S-20928]
body weight (most resilient consequence of DA degeneration) (6-OHDA treated rats; S-20928 1 mg/kg ip): capable of repairing
morbidity of the disease (6-OHDA treated rats; S-20928 1 mg/kg ip): decreases the morbidity of the disease
survival time (6-OHDA treated rats; S-20928 1 mg/kg ip): increases survival time

COc1ccc2[nH]cc(CCNC(C)=O)c2c1 [melatonin]
reduction in open field performance relative to animals implanted with inert nylon ([2]; melatonin implants after 6-OHDA): more than twice as much
loss of body weight after 6-OHDA ([2]; melatonin implants vs nylon implants, day 16 to end of experiment, p=0.0143, FIG. 14): more severe loss of body weight
overall change in open field performance and that during the test session ([2]; melatonin implants vs nylon implants, p=0.0022, FIGS. 15A and B): significantly worse
performance on the 3 motor tests (limb retraction, step, ambulate) ([2]; melatonin implants vs nylon, FIGS. 16-18): slower than the animals implanted with nylon although not significant
body weight gain ([3]; melatonin implants vs nylon, MPTP 7 mg/kg i.p. on day 4, p=0.0201, FIG. 22A/B): did not gain as much weight
ability to step, assessed during the night ([3]; melatonin implants vs nylon, p=0.0238, FIG. 24): significant decrement in the ability to step
motor impairment after MPTP (open field locomotion) ([3]; melatonin pellets vs nylon, overall performance p=0.0344, night trend p=0.0638, FIG. 23A/B): increased the motor impairment
amelioration of the clinical features of Parkinson's disease ([4]; daily doses of 1000-1200 mg of melatonin per day, ref (18)): 20-36%
tremor ([4]; daily doses of 1000-1200 mg of melatonin per day, ref (19)): significant reduction in tremor
cardinal features of Parkinson's disease, replication study ([4]; similar doses over the same time period, ref (20)): did not improve the cardinal features

COc1ccc2c(c1)C(CCNc1cccc([N+](=O)[O-])c1[N+](=O)[O-])CN2 (stereo not shown) [ML-23]
horizontal and vertical movement, particularly at night (6-OHDA treated rats; ML-23 3 mg/kg ip): significantly improved
overall performance versus vehicle following 6-ODHA injection (6-OHDA treated rats; ML-23 3 mg/kg ip): performed better than those treated with vehicle
body weight loss (6-OHDA treated rats; [6]): prevented the severe body weight loss
development of severe motor impairment (6-OHDA treated rats; [6]): prevented the development of severe motor impairment
survival / recovery (6-OHDA treated rats; ML-23 3 mg/kg ip, 3 out of 7 animals in the 6-ODHA/vehicle group died within 6 days): all rats treated with ML-23 recovered
latency to perform the 3 motor tests (retract a limb, step, ambulate) (6-OHDA treated rats; ML-23 3 mg/kg ip, test and recovery periods): improved
number of changes in head movement ([5]; ML-23 oral 5 mg/kg twice daily for 52 days, vehicle 9.5, p=0.006): 19.8
horizontal movement at night ([5]; ML-23 oral 5 mg/kg twice daily for 52 days, vehicle 35 counts, p=0.01): 80 counts per 30 minutes
vertical movement ([5]; ML-23 oral 5 mg/kg twice daily for 52 days, vehicle 308, p-0.01): 594 per 30 minutes
intake of dry food ([5]; ML-23 oral, vehicle 1 gram per day, p=0.0001): 3 grams per day
psychotic features score (agitation, frantic non-regulatory biting, vocalization, obstinate progression) ([5]; positive symptoms 48 hours after MPTP treatment, oral ML-23, vehicle score=10, p=0.0005): 2.5
overall clinical rating of Parkinsonian behavior ([5]; scale 0= normal to 20= severely Parkinsonian, ML-23 oral 5 mg/kg twice daily, vehicle 8.4, p-0.006): 1.4
